Our source for the IC50 values is patent publication US8058283B2, “7H-pyrido[3,4-D]pyrimidin-8-ones, their manufacture and use as protein kinase inhibitors” (Hoffmann-La Roche Inc., priority 2006, dated 2011).

Common to all, as to type: biochemical
Test [1] deals with T1, mouse Abl (27-end) fusion protein (Mus musculus, UniProt P00520).
T1 construct: fusion protein corresponding to mouse Abl (27-end)
As to the kind of experiment: IC50 determination for inhibitors of Abl kinase (IMAP fluorescence polarization). Particulars: 22.8 uM ATP, 37° C., 60 minutes; read-out: IC50 Abl kinase inhibition. The protocol:
IC50 Determination for Inhibitors of Abl Kinase
Abl assay was done using fusion protein corresponding to mouse Abl (27-end) fluorescein labeled peptide substrate (with a sequence of EAIYAAPFAKKK) and quantified by Molecular Devices' IMAP fluorescence polarization technology. Compounds were tested in serially diluted concentrations in 384 well plates. Kinase reaction was performed in KAB Buffer (10 mM HEPES, pH 7, 50 mM NaCl, 5 mM MgCl2, 1 mM DTT, 0.1 mM NaVO4, 0.02% BSA), in the presence of 22.8 uM ATP, incubated at 37° C. for 60 minutes. Reaction was stopped by IMAP bead mix (at 1:400 diluted). After incubation at room temperature for 3 hours, the reaction product was analyzed on LJL Acquest (excitation 485 nm and Emission 530 nm).
(§1) FP reading (in mP) was used to calculate reaction rate. The assay was semi-automated by Tomtec Quadra workstation.
A general note: Polarisation of emitted light reports the rotation of a fluorescent probe.

The target of another test is T2, Src (p60c-src) (Homo sapiens, UniProt P12931).
T2 construct: purchased UBI, Upstate Biotech, Inc
Briefly: Src-Inhibitor-Assay (time-resolved fluorescence). Particulars: ATP 5 μM; enzyme pre-incubated 15 min at 15° C. with inhibitor. The protocol: Src-Inhibitor-Assay Parameters:
• ATP 5 μM • Peptide (Ro+Ja133-Ro): 10 μM • Ja133-Ro 196 nM • Ro 9.8 μM • PT66 230 ng/ml • Assay buffer: 4 mM MgCl2 • 2 mM TCEP • 50 mM HEPES • 0.1% Tween 20 • pH 7.3 • Enzyme: 2.5 U/ml • Inhibitor: max. 25 μM • min. 0.42 nM Material: • Eu-labelled phosphotyrosine antibody: —for Lck Cisbio Mab PT66-K, • for Src EG&G Wallac PT66 Eu-W1024 (all commercially available). • Peptides: Ro: NH2-A-E-E-E-I-Y-G-E-F-E-A-K-K-K-K-CONH2, and • Ja133-Ro: Ja133-G-Aminocaprylic acid-A-E-E-E-I-Y-G-E-F-E-A-K-K-K-K-CONH2, wherein Ja133 is LightCycler-Red 640-N-hydroxy succinimide ester; • whereby both peptides were synthesized by an optimized solid phase peptide synthesis protocol (Merrifield, Fed. Proc. Fed. Amer. Soc. Exp. Biol. 21 (1962) 412) on a Zinsser SMP350 peptide synthesizer. Shortly, the peptide was assembled on 160 mg (22.8 μmol scale) of a Rink-Linker modified polystyrene solid phase by repeatedly conjugating an twenty fold excess of amino acids each protected by temporary piperidine labile Fmoc- and permanent acid labile tert-Bu-, BOC- and O-tert-Bu-groups depending on the side chain function. The substrate sequence AEEEIYGEFEAKKKK was N-terminal additionally mounted with the spacer amino acids Aminocaprylic acid and Glycin. After cleavage of the N-terminal temporary protecting group the still attached and protected peptide was labeled with a 1.5 fold amount of LightCycler-Red 640-N-hydroxy succinimide ester (purchased from Roche Diagnostics GmbH) and triethylamine. After 3 hrs. the resin was washed with Dimethylformamide and Isopropanol until the eluates of the blue resin got colourless. […] The substrate was finally isolated by a preparative reverse phase HPLC purification. The purification yielded 12.2 mg RP-HPLC single peak pure blue material (lyophilisate). The identity was proven by MALDI mass spectroscopy [2720.0]. • Enzymes: Upstate Lck (p56^lck, active), Upstate Src (p60^c-src, partially purified) were purchased from UBI, Upstate Biotech, Inc. Time-resolved Fluorescence Assay: Reader: Perkin Elmer, Wallac Viktor 1420-040 multilabel counter; Liquid handling system: Beckman Coulter, Biomek 2000.
ATP, Tween™ 20, 4-(2-hydroxyethyl)-1-piperazineethanesulfonic acid (HEPES) were purchased from Roche Molecular Biochemicals, MgCl2 and MnCl2 were purchased from Merck Eurolab, Tris(2-carboxyethyl)phosphine hydrochloride (TCEP) was purchased from Pierce, 384 Well low volume fluorescence plates was purchased from Falcon.
At first the enzyme is pre-incubated for 15 min. at 15° C. in aqueous solution with corresponding amounts of inhibitors according to this invention. Then the phosphorylation reaction is started by adding a reaction mixture, containing ATP, Peptide and PT66, and subsequent shaking. The proceeding of this reaction is immediately monitored using time resolved fluorescence spectroscopy in a suitable well plate reader.
The IC50-values can be obtained from the reaction rates by using a non-linear curve fit (XLfit software (ID Business Solution Ltd., Guilford, Surrey, UK)).

Test [2] has as its target human recombinant PDGFR beta (Homo sapiens, UniProt P09619). Briefly: IC50 determination for inhibitors of PDGFR kinase (IMAP fluorescence polarization). Particulars: 48 uM ATP, room temperature, 60 minutes; read-out: IC50 PDGFR kinase inhibition. The protocol: IC50 Determination for Inhibitors of PDGFR Kinase Assay Principle
PDGFR assay was carried out with human recombinant PDGFR beta, fluorescein labeled peptide substrate (with a peptide sequence of ALTSNQEYLDLSMPL) and test compounds (in serial dilution) using 384-well plates. Kinase reaction was performed in MOPS buffer (20 mM MOPS pH 7.1, 5 mM Sodium Acetate, 6.25 mM MgCl2, 0.5 mM EDTA, 1 mM DTT, 0.04 mM NaVO4, 0.02% BSA), in the presence of 48 uM ATP, incubated at room temperature for 60 minutes. Reaction was stopped by IMAP Bead Binding System (Molecular Devices). After incubation at room temperature for 2 hours, the reaction product was analyzed on LJL Acquest.
as §1

human recombinant PDGFR beta, sequence (P09619 33-1106): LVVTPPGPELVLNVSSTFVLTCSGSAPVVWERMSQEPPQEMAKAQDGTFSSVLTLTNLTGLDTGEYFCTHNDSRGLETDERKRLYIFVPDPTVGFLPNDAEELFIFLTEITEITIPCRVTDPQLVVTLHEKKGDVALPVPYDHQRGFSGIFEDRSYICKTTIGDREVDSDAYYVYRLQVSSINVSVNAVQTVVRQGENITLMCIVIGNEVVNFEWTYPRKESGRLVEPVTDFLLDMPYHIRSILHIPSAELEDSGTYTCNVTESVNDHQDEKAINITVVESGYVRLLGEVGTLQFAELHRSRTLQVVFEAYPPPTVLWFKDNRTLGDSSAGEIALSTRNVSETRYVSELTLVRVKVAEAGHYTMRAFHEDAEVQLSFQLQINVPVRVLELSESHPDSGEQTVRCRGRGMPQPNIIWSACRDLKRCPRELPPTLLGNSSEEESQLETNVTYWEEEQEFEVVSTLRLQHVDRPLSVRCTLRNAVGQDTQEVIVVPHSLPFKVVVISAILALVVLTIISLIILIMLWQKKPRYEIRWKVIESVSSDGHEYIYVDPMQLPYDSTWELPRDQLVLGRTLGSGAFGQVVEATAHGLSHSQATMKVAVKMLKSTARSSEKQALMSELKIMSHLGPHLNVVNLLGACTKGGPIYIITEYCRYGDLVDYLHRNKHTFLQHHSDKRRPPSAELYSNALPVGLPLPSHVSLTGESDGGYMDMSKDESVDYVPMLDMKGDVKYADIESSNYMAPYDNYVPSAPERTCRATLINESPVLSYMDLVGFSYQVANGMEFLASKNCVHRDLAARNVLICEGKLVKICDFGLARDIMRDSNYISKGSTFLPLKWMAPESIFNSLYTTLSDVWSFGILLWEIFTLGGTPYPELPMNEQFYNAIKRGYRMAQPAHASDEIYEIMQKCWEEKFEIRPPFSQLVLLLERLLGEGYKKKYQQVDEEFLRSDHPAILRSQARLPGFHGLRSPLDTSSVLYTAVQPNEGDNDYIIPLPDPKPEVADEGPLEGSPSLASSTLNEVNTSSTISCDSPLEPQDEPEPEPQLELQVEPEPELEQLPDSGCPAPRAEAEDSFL
T1 sequence (P00520 27-1123 limits assumed): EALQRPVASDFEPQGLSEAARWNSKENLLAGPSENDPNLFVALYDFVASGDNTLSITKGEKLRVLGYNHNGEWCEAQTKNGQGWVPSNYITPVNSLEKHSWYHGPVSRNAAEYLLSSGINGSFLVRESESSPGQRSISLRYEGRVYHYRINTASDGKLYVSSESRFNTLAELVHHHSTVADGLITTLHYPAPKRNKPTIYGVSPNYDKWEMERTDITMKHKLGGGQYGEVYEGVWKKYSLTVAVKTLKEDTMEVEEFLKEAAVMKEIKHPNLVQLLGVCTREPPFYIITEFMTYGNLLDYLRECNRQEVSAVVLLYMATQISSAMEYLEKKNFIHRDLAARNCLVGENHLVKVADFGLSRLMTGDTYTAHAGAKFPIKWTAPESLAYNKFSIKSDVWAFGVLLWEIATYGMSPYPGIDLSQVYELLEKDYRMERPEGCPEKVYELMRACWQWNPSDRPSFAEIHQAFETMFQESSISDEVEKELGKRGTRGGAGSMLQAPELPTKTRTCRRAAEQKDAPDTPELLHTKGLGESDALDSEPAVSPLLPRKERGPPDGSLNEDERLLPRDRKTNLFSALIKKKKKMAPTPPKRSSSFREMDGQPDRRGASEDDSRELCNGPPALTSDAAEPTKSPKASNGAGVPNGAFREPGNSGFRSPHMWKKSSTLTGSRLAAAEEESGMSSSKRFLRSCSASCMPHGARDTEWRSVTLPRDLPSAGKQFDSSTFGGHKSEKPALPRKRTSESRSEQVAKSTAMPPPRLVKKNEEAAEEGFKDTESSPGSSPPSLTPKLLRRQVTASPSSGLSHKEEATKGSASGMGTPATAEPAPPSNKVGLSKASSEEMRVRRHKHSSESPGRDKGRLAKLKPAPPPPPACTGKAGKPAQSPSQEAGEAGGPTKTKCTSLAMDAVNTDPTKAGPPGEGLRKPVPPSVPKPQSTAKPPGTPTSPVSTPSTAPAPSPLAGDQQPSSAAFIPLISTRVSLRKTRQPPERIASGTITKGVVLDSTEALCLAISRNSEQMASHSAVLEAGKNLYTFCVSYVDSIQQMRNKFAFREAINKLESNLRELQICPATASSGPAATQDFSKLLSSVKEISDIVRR
T2 sequence (P12931 whole entry): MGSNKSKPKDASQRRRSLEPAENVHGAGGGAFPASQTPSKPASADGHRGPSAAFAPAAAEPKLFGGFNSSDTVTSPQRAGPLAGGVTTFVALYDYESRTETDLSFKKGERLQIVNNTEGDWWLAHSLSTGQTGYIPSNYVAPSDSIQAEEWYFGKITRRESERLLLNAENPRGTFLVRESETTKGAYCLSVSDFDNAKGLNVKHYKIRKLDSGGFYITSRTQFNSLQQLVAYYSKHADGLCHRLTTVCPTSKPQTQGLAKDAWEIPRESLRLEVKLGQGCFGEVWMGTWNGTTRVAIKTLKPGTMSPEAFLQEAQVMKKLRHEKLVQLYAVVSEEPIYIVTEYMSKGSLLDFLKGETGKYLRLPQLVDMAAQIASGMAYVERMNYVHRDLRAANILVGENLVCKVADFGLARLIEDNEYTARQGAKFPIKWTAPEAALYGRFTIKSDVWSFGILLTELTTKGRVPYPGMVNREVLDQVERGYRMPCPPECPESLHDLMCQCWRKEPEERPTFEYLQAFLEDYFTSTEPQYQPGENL

Turning to `Cc1ccccc1-c1cc2cnc(Nc3ccc(S(=O)(=O)NCCO)cc3)nc2c(=O)n1CC(N)=O` [Example 5, 2-{2-[4-(2-Hydroxy-ethylsulfamoyl)-phenylamino]-8-oxo-6-o-tolyl-8H-pyrido[3,4-d]pyrimidin-7-yl}-acetamide], the results for the IC50 (in test [1]; at Src (p60c-src)) were 77 nM and 1 to 500 nM, respectively.

As to `Cc1cc(Cn2c(-c3ccccc3Cl)cc3cnc(Nc4cccc([S+](C)[O-])c4)nc3c2=O)nn1C` (stereo not shown) [Example 33, 6-(2-Chloro-phenyl)-7-(1,5-dimethyl-1H-pyrazol-3-ylmethyl)-2-(3-methanesulfinyl-phenylamino)-7H-pyrido[3,4-d]pyrimidin-8-one], the IC50 (in test [1]; on Src (p60c-src)) was 1 to 500 nM each time.

Consider `CCN(CC)CCOc1ccc(Nc2ncc3cc(-c4ccccc4C)n(C)c(=O)c3n2)cc1` [Example 7, 2-[4-(2-Diethylamino-ethoxy)-phenylamino]-7-methyl-6-o-tolyl-7H-pyrido[3,4-d]pyrimidin-8-one], for which the IC50 (in test [2]; in test [1]; against Src (p60c-src)) was 1 to 500 nM throughout.

As to `COc1cccc(Cn2c(-c3ccccc3Cl)cc3cnc(Nc4ccc(S(=O)(=O)NCCO)cc4)nc3c2=O)c1` [Example 37, 4-[6-(2-Chloro-phenyl)-7-(3-methoxy-benzyl)-8-oxo-7,8-dihydro-pyrido[3,4-d]pyrimidin-2-ylamino]-N-(2-hydroxy-ethyl)-benzenesulfonamide], the IC50 (in test [1]; against Src (p60c-src)) was 1 to 500 nM each time.

`Cc1ccccc1-c1cc2cnc(Nc3ccc(S(=O)(=O)NCCO)cc3)nc2c(=O)n1C` [Example 6, N-(2-Hydroxy-ethyl)-4-(7-methyl-8-oxo-6-o-tolyl-7,8-dihydro-pyrido[3,4-d]pyrimidin-2-ylamino)-benzenesulfonamide]: the IC50 (in test [2]; in test [1]; on Src (p60c-src)) was 1 to 500 nM throughout.

As for `CCN(CC)CCOc1ccc(Nc2ncc3cc(-c4ccccc4C)n(Cc4cccc(OC)c4)c(=O)c3n2)cc1` [Example 22, 2-[4-(2-Diethylamino-ethoxy)-phenylamino]-7-(3-methoxy-benzyl)-6-o-tolyl-7H-pyrido[3,4-d]pyrimidin-8-one], the IC50 – broadly, the concentration at which inhibition is half-maximal – in test [1] lay within 1 to 500 nM.

For the molecule `Cc1ccccc1-c1cc2cnc(Nc3ccc(N4CCN(C)CC4)cc3)nc2c(=O)n1C` [Example 3, 7-Methyl-2-[4-(4-methyl-piperazin-1-yl)-phenylamino]-6-o-tolyl-7H-pyrido[3,4-d]pyrimidin-8-one], the IC50 is 94 nM in test [2], 1 to 500 nM in test [1] and 1 to 500 nM on Src (p60c-src).

With `Cc1cc(Cn2c(-c3ccccc3Cl)cc3cnc(Nc4ccc(N5CCN(C)CC5)cc4)nc3c2=O)nn1C` [Example 30, 6-(2-Chloro-phenyl)-7-(1,5-dimethyl-1H-pyrazol-3-ylmethyl)-2-[4-(4-methyl-piperazin-1-yl)-phenylamino]-7H-pyrido[3,4-d]pyrimidin-8-one], the IC50 in test [2] lay within 500 to 15000 nM; in test [1] it was 1 to 500 nM; against Src (p60c-src), 1 to 500 nM.

As for `Cc1ccccc1-c1cc2cnc(Nc3cccc([S+](C)[O-])c3)nc2c(=O)n1C` (stereo not shown) [Example 10, 2-(3-Methanesulfinyl-phenylamino)-7-methyl-6-o-tolyl-7H-pyrido[3,4-d]pyrimidin-8-one], the IC50 was 417 nM in test [2], 1 to 500 nM in test [1] and 1 to 500 nM against Src (p60c-src).

As for `CCN(CC)CCOc1ccc(Nc2ncc3cc(-c4ccccc4Cl)n(Cc4cc(C)n(C)n4)c(=O)c3n2)cc1` [Example 31, 6-(2-Chloro-phenyl)-2-[4-(2-diethylamino-ethoxy)-phenylamino]-7-(1,5-dimethyl-1H-pyrazol-3-ylmethyl)-7H-pyrido[3,4-d]pyrimidin-8-one], the IC50 (in test [1]; against Src (p60c-src)) was 1 to 500 nM in each case.

Consider `Cc1ccccc1-c1cc2cnc(NC(CO)CO)nc2c(=O)n1C` [Example 4, 2-(2-Hydroxy-1-hydroxymethyl-ethylamino)-7-methyl-6-o-tolyl-7H-pyrido[3,4-d]pyrimidin-8-one], for which the IC50 was 500 to 15000 nM in test [1] and 500 to 1500 nM against Src (p60c-src).

On to `COc1cccc(Cn2c(-c3ccccc3C)cc3cnc(Nc4ccc(S(=O)(=O)NCCO)cc4)nc3c2=O)c1` [Example 21, N-(2-Hydroxy-ethyl)-4-[7-(3-methoxy-benzyl)-8-oxo-6-o-tolyl-7,8-dihydro-pyrido[3,4-d]pyrimidin-2-ylamino]-benzenesulfonamide], for which the IC50 (in test [1]; on Src (p60c-src)) was 1 to 500 nM in each case.

Regarding `COc1cccc(Cn2c(-c3ccccc3C)cc3cnc(Nc4cccc([S+](C)[O-])c4)nc3c2=O)c1` (stereo not shown) [Example 23, 2-(3-Methanesulfinyl-phenylamino)-7-(3-methoxy-benzyl)-6-o-tolyl-7H-pyrido[3,4-d]pyrimidin-8-one], the IC50 (in test [1]; at Src (p60c-src)) was 1 to 500 nM throughout.

For `Cc1ccccc1-c1cc2cnc(NC3CCOCC3)nc2c(=O)n1C` [Example 12, 7-Methyl-2-(tetrahydro-pyran-4-ylamino)-6-o-tolyl-7H-pyrido[3,4-d]pyrimidin-8-one], the IC50 is 500 to 15000 nM in test [1] and 687 nM on Src (p60c-src).

For `COc1cccc(Cn2c(-c3ccccc3C)cc3cnc(Nc4ccc(N5CCN(C)CC5)cc4)nc3c2=O)c1` [Example 20, 7-(3-Methoxy-benzyl)-2-[4-(4-methyl-piperazin-1-yl)-phenylamino]-6-o-tolyl-7H-pyrido[3,4-d]pyrimidin-8-one], the figures for the IC50 (in test [2]; in test [1]; against Src (p60c-src)) were 500 to 15000 nM, 1 to 500 nM and 1 to 500 nM, respectively.

For the molecule `Cc1ccccc1-c1cc2cnc(Nc3ccc(N4CCOCC4)cc3)nc2c(=O)n1C` [Example 1, 7-Methyl-2-(4-morpholin-4-yl-phenylamino)-6-o-tolyl-7H-pyrido[3,4-d]pyrimidin-8-one], the IC50 in test [2] was 1 to 500 nM; in test [1] it was 1 to 500 nM; against Src (p60c-src), 2.9 nM.

Consider `Cc1ccccc1-c1cc2cnc(Nc3cccc([S+](C)[O-])c3)nc2c(=O)n1CC(N)=O` (stereo not shown) [Example 8, 2-[2-(3-Methanesulfinyl-phenylamino)-8-oxo-6-o-tolyl-8H-pyrido[3,4-d]pyrimidin-7-yl]-acetamide], for which the IC50 is 214 nM in test [1] and 1 to 500 nM against Src (p60c-src).
